In US11208400B2, “Substituted 6-(1H-pyrazol-1-yl)pyrimidin-4-amine derivatives and uses thereof” (Bayer Aktiengesellschaft, priority 2016, dated 2021) one finds IC50 data, which are given here for eleven compounds.

For the test, the target named is T1, human Npt2a (Homo sapiens, UniProt Q06495).
T1 construct: expressed in transfected cells
T1 sequence (Q06495 1-639): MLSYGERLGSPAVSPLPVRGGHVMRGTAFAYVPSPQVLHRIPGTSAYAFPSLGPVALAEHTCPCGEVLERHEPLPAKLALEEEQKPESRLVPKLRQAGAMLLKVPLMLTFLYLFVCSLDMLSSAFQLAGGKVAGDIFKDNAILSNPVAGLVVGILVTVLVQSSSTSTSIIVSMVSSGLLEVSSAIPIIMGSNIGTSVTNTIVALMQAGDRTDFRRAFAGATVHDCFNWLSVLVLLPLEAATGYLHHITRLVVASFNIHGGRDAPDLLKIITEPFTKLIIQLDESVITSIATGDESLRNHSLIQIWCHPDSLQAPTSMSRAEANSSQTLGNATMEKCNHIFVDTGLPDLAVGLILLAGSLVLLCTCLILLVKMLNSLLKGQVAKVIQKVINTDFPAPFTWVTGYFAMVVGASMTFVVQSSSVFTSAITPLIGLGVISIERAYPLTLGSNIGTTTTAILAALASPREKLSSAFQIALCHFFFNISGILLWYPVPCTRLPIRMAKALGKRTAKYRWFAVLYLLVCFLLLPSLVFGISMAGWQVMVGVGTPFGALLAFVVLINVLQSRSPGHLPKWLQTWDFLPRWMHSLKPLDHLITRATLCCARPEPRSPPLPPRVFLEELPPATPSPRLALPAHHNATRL
Nature of the test: Npt2a activity cell based assay, membrane potential dye, CHO T-REx hNpt2a cells. The conditions noted are these: doxycycline-induced, depolarization by sodium phosphate influx, average or median values if tested more than once. In a few lines: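 Doxycycline-induced (0.5 μg/mL, 24 h) CHO T-REx cells were loaded with membrane potential dye in sodium-free NHE buffer (pH 7.4) and exposed to compound (50 μM–1 nM, 5 min, room temperature).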
A word on the IC50: it is the concentration that inhibits the measured activity by half. The low end stands for higher potency, the high end for lower potency. In the case of `Cc1nn(-c2cc(Nc3c(C)c(-c4ccc(F)cc4)nn3CC3CC3)ncn2)c(C(F)F)c1Cl` [Example 176, 6-[4-chloro-5-(difluoromethyl)-3-methyl-1H-pyrazol-1-yl]-N-[1-(cyclopropylmethyl)-3-(4-fluorophenyl)-4-methyl-1H-pyrazol-5-yl]pyrimidin-4-amine], the midpoint of inhibition, the IC50, lay at 13 nM.
`CCOC(=O)c1c(C)nn(-c2cc(Nc3nn(CC(F)F)c(-c4ccc(F)cc4)c3CC)ncn2)c1C` [Example 177, ethyl 1-(6-{[1-(2,2-difluoroethyl)-4-ethyl-5-(4-fluorophenyl)-1H-pyrazol-3-yl]amino}pyrimidin-4-yl)-3,5-dimethyl-1H-pyrazole-4-carboxylate] gave an IC50 of 41 nM.
As to `CCOC(=O)c1c(Cl)c(C)nn1-c1cc(Nc2nn(C)c(-c3ccc(F)cc3)c2CC)ncn1` [Example 178, ethyl 4-chloro-1-(6-{[4-ethyl-5-(4-fluorophenyl)-1-methyl-1H-pyrazol-3-yl]amino}pyrimidin-4-yl)-3-methyl-1H-pyrazole-5-carboxylate], 26 nM corresponded to half-maximal inhibition (IC50).
`CCc1c(-c2ccc(F)cc2)nn(CC(F)F)c1Nc1cc(-n2nc(C)c(Cl)c2C(F)F)ncn1` [Example 179, 6-[4-chloro-5-(difluoromethyl)-3-methyl-1H-pyrazol-1-yl]-N-[1-(2,2-difluoroethyl)-4-ethyl-3-(4-fluorophenyl)-1H-pyrazol-5-yl]pyrimidin-4-amine] yielded an IC50 of 170 nM. This IC50 lies about 6.5-fold higher than the previous one.
`CCOC(=O)c1c(C)nn(-c2cc(Nc3c(CC)c(-c4ccc(F)cc4)nn3CC(F)F)ncn2)c1C` [Example 180, ethyl 1-(6-{[1-(2,2-difluoroethyl)-4-ethyl-3-(4-fluorophenyl)-1H-pyrazol-5-yl]amino}pyrimidin-4-yl)-3,5-dimethyl-1H-pyrazole-4-carboxylate] displayed an IC50 of 47 nM.
On to `CCc1c(Nc2cc(-n3nc(C)c(C(C)(C)O)c3C)ncn2)n[nH]c1-c1ccc(F)cc1` [Example 181, 2-[1-(6-{[4-ethyl-5-(4-fluorophenyl)-1H-pyrazol-3-yl]amino}pyrimidin-4-yl)-3,5-dimethyl-1H-pyrazol-4-yl]propan-2-ol], for which the IC50 amounted to 1500 nM.
For `CCc1c(-c2ccc(F)cc2)nn(CC2CCC2)c1Nc1cc(-n2nc(C)cc2C)ncn1` [Example 182, N-[1-(cyclobutylmethyl)-4-ethyl-3-(4-fluorophenyl)-1H-pyrazol-5-yl]-6-(3,5-dimethyl-1H-pyrazol-1-yl)pyrimidin-4-amine] the value was 106 nM; for `Cc1nn(-c2cc(Nc3nn(CC4CC4)c(-c4ccc(F)cc4)c3Cl)ncn2)c(C)c1Cl` [Example 183, N-[4-chloro-1-(cyclopropylmethyl)-5-(4-fluorophenyl)-1H-pyrazol-3-yl]-6-(4-chloro-3,5-dimethyl-1H-pyrazol-1-yl)pyrimidin-4-amine], 930 nM.
For `Cc1nn(-c2cc(Nc3nn(CC4CC4)c(-c4ccc(F)cc4)c3Cl)ncn2)c(C(F)F)c1Cl` [Example 184, N-[4-chloro-1-(cyclopropylmethyl)-5-(4-fluorophenyl)-1H-pyrazol-3-yl]-6-[4-chloro-5-(difluoromethyl)-3-methyl-1H-pyrazol-1-yl]pyrimidin-4-amine] the value was 1200 nM; for `Cc1nn(-c2cc(Nc3c(Cl)c(-c4ccc(F)cc4)nn3CC3CC3)ncn2)c(C)c1Cl` [Example 185, N-[4-chloro-1-(cyclopropylmethyl)-3-(4-fluorophenyl)-1H-pyrazol-5-yl]-6-(4-chloro-3,5-dimethyl-1H-pyrazol-1-yl)pyrimidin-4-amine], 27 nM.
As for `Cc1nn(-c2cc(Nc3c(Cl)c(-c4ccc(F)cc4)nn3CC3CC3)ncn2)c(C(F)F)c1Cl` [Example 186, N-[4-chloro-1-(cyclopropylmethyl)-3-(4-fluorophenyl)-1H-pyrazol-5-yl]-6-[4-chloro-5-(difluoromethyl)-3-methyl-1H-pyrazol-1-yl]pyrimidin-4-amine], the midpoint of inhibition, the IC50, lay at 60 nM. Compared with the last compound, the IC50 is about 2.2-fold higher.
